Reference: patent US20110112100A1, “Hepatitis C Virus Inhibitors” (priority 2009, published 2011)
Where a name gives a salt, the structure may show the parent alone. Read-outs that look alike come from different tables or passages of the source.

Assays:
1a-H77 replicon cells = experiment: HCV 1a replicon inhibitory activity (Renilla luciferase); type: cell-based, hepatitis C virus; conditions: Hepatitis C virus, read-out: IC50 value (95% Confidence Intervals) pM Replicon 1A assay
Outline: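 Replicon cells in DMEM + 10% FCS incubated 48 hours at 37° C., 5% CO2 with 1-in-3 serial dilutions of compound prepared in DMSO. Replication read as Renilla luciferase luminescence after lysis. EC50 taken from log concentration-response curves.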

1b (con1) replicon cells = experiment: HCV 1b replicon inhibitory activity (luciferase, Britelite Plus); type: cell-based, hepatitis C virus; conditions: Hepatitis C virus, read-out: IC50 value (95% Confidence Intervals) pM Replicon 1B assay
Outline: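 1b (con1) luciferase replicon cells in DMEM + 10% FCS were exposed to 1-in-3 DMSO compound dilutions for 48 h at 37° C, 5% CO2. Luminescence was read 1-15 min after Britelite Plus addition; EC50 came from log concentration-response curves.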

[1] = Compound induced cytotoxicity in HCV replicon cell lines (WST-1 reagent); type: cell-based; conditions: human, 1b (con1) HCV replicon cells
Experimental: Test compounds were solubilised to 4 mM in 100% DMSO. Dilutions were made to the desired starting concentration in 100% DMSO and then 1 in 3 dilutions made, again in 100% DMSO. 0.5 μl of each sample was added to 384-well assay plates. White Lumitrac (Greiner) plates were used for the 1a and 1b replicon assays and black, clear bottomed (Greiner) plates were used for the WST-1 cytotoxity assay.
1b (con1) replicon cells were resuspended to a concentration of 1.4×10^5 cells/ml by addition of pre-warmed medium (DMEM+10% FCS). 50 μl of this suspension was added to each well of a 384-well assay plate (Black, clear bottomed, Greiner) already containing 0.5 μl of test compound.
All plates were covered with gas permeable seals and incubated at 37° C., 5% CO2 for 48 hours. After 48 hours, 5 μl WST-1 reagent (Roche, 11 644 807 001) was added to each well and the plate returned to the incubator for 3 hours. After this incubation period absorbance was read at 450 nm on an EnVision (Perkin Elmer) plate reader. The half maximal cytotoxic concentration (CC50) values were calculated for each compound by constructing log concentration-response curves.
All of the exemplified compounds have been screened in a cell proliferation assay (WST-1). A majority have […] in at least 2 independent experiments, the exceptions being the compounds of examples 1, 10, 12, 23, 25, 37, 47, 48, 49, 52, 56, 57, 58, 60, 67, 68, 69, 70, 71, 72, 73, 74, 79, 81 and 84 which have CC50 values>2 μM in 1 experiment, and example 20 where the CC50 is reported as >10 nM (in this instance the top concentration tested in the assay was 10 nM).

[2] = geometric mean, 95% confidence intervals in parentheses, 48 hours, medium with 10% FCS
[3] = WST-1, 48 hours, in 1 experiment

| Compound | IC50 (1a-H77 replicon cells; [2]) [pM] | IC50 (1b (con1) replicon cells; [2]) [pM] | CC50 at 48 h [1, 3] [nM] | CC50 at 48 h ([1]; WST-1, top concentration tested in the assay was 10 nM) [nM] | IC50 (1a-H77 replicon cells; 48 h) [pM] | IC50 (1b (con1) replicon cells; 48 h) [pM] |
| --- | --- | --- | --- | --- | --- | --- |
| COC(=O)N[C@H](C(=O)N1CCC[C@H]1c1ncc(-c2ccc(-c3ccc4cc(-c5cnc([C@@H]6CCCN6C(=O)[C@@H](NC(=O)OC)C(C)C)[nH]5)cnc4c3)nc2)[nH]1)C(C)C [Example 10, Methyl {(2S)-1-[(2S)-2-{5-[6-(3-{2-[(2S)-1-{(2S)-2-[(methoxycarbonyl)amino]-3-methyl-butanoyl}pyrrolidin-2-yl]-1H-imidazol-5-yl}quinolin-7-yl)pyridin-3-yl]-1H-imidazol-2-yl}pyrrolidin-1-yl]-3-methyl-1-oxobutan-2-yl}carbamate] | 1320 | 49.4 | > 2000 | – | – | – |
| CC[C@H](NC(=O)OC)C(=O)N1CCC[C@H]1c1nc(-c2ccc(-c3cnc4cc(-c5cnc([C@@H]6CCCN6C(=O)[C@H](CC)NC(=O)OC)[nH]5)cnc4c3)cc2)c[nH]1 [Example 12, Methyl {(2S)-1-[(2S)-2-{4-[4-(7-{2-[(2S)-1-{(2S)-2-[(methoxycarbonyl)amino]butanoyl}pyrrolidin-2-yl]-1H-imidazol-5-yl}-1,5-naphthyridin-3-yl)phenyl]-1H-imidazol-2-yl}pyrrolidin-1-yl]-1-oxobutan-2-yl}carbamate] | 3100 | 358 | > 2000 | – | – | – |
| COC(=O)N[C@H](C(=O)N1CCC[C@H]1c1ncc(-c2ccc(-c3ncc4cc(-c5cnc([C@@H]6CCCN6C(=O)[C@@H](NC(=O)OC)C(C)C)[nH]5)ccc4n3)nc2)[nH]1)C(C)C [Example 20, Methyl {(2S)-1-[(2S)-2-{5-[2-(5-{2-[(2S)-1-{(2S)-2-[(methoxycarbonyl)amino]-3-methylbutanoyl}pyrrolidin-2-yl]-1H-imidazol-5-yl}pyridin-2-yl)quinazolin-6-yl]-1H-imidazol-2-yl}pyrrolidin-1-yl]-3-methyl-1-oxobutan-2-yl}carbamate] | 1720 | 127 | – | > 10 | – | – |
| COC(=O)N[C@H](C(=O)N1CCC[C@H]1c1nc(-c2ccc3nc(-c4ccc(-c5cnc([C@@H]6CCCN6C(=O)[C@@H](NC(=O)OC)C(C)C)[nH]5)cc4)cc(C#N)c3c2)c[nH]1)C(C)C [Example 23, Methyl {(2S)-1-[(2S)-2-{5-[4-(4-cyano-6-{2-[(2S)-1-{(2S)-2-[(methoxycarbonyl)amino]-3-methylbutanoyl}pyrrolidin-2-yl]-1H-imidazol-4-yl}quinolin-2-yl)phenyl]-1H-imidazol-2-yl}pyrrolidin-1-yl]-3-methyl-1-oxobutan-2-yl}carbamate] | 5450 | 58.4 | > 2000 | – | – | – |
| CC[C@H](NC(=O)OC)C(=O)N1CCC[C@H]1c1ncc(-c2ccc(-c3ccc4cc(-c5cnc([C@@H]6CCCN6C(=O)[C@H](CC)NC(=O)OC)[nH]5)ccc4c3)cc2)[nH]1 [Example 25, Methyl {(2S)-1-[(2S)-2-{5-[4-(6-{2-[(2S)-1-{(2S)-2-[(methoxycarbonyl)amino]butanoyl}pyrrolidin-2-yl]-1H-imidazol-5-yl}naphthalen-2-yl)phenyl]-1H-imidazol-2-yl}pyrrolidin-1-yl]-1-oxobutan-2-yl}carbamate] | 88.8 | 10.8 | > 2000 | – | – | – |
| CCC[C@H](NC(C)=O)C(=O)N1CCC[C@H]1c1ncc(-c2ccc3nc(-c4ccc(-c5c[nH]c([C@@H]6CCCN6C(=O)[C@@H](NC(=O)OC)C(C)C)n5)cc4)cnc3c2)[nH]1 [Example 37, Methyl {(2S)-1-[(2S)-2-{4-{4-[6-(2-{(2S)-1-(N-acetyl-L-norvalyl)pyrrolidin-2-yl]-1H-imidazol-5-yl)quinoxalin-2-yl)phenyl]-1H-imidazol-2-yl}pyrrolidin-1-yl]-3-methyl-1-oxobutan-2-yl}carbamate trifluoroacetic acid salt] | – | – | > 2000 | – | 284 | 42.9 |
| COC(=O)N[C@H](C(=O)N1CCC[C@H]1c1nc(-c2ccc(-c3cnc4cc(-c5cnc([C@@H]6CCCN6C(=O)[C@H](Cc6ccccc6)NC(C)=O)[nH]5)ccc4n3)cc2)c[nH]1)C(C)C [Example 47, Methyl {(2S)-1-[(2S)-2-{4-[4-(6-{2-[(2S)-1-(N-acetyl-L-phenylalanyl)pyrrolidin-2-yl]-1H-imidazol-5-yl}quinoxalin-2-yl)phenyl]-1H-imidazol-2-yl}pyrrolidin-1-yl]-3-methyl-1-oxobutan-2-yl}carbamate trifluoroacetic acid salt] | – | – | > 2000 | – | 6850 | 52.8 |
| COC(=O)N[C@@H](Cc1ccccc1)C(=O)N1CCC[C@H]1c1ncc(-c2ccc3nc(-c4ccc(-c5c[nH]c([C@@H]6CCCN6C(=O)[C@@H](NC(=O)OC)C(C)C)n5)cc4)cnc3c2)[nH]1 [Example 49, Methyl {(2S)-1-[(2S)-2-{5-[2-(4-{2-[(2S)-1-{(2S)-2-[(methoxycarbonyl)amino]-3-methylbutanoyl}pyrrolidin-2-yl]-1H-imidazol-4-yl}phenyl)quinoxalin-6-yl]-1H-imidazol-2-yl}pyrrolidin-1-yl]-1-oxo-3-phenylpropan-2-yl}carbamate trifluoroacetic acid salt] | – | – | > 2000 | – | 73 | 7.27 |
| CC[C@H](NC(=O)OC)C(=O)N1CCC[C@H]1c1ncc(-c2ccc3nc(-c4ccc(-c5c[nH]c([C@@H]6CCCN6C(=O)[C@@H](NC(=O)OC)C(C)C)n5)cc4)cnc3c2)[nH]1 [Example 52, Methyl {(2S)-1-[(2S)-2-{4-[4-(6-{2-[(2S)-1-{(2S)-2-[(methoxycarbonyl)amino]butanoyl}pyrrolidin-2-yl]-1H-imidazol-5-yl}quinoxalin-2-yl)phenyl]-1H-imidazol-2-yl}pyrrolidin-1-yl]-3-methyl-1-oxobutan-2-yl}carbamate trifluoroacetic acid salt] | – | – | > 2000 | – | 22.1 | 16.6 |
| COC(=O)N[C@H](C(=O)N1CCC[C@H]1c1ncc(-c2ccc3nc(-c4ccc(-c5c[nH]c([C@@H]6CCCN6C(=O)[C@@H](NC(=O)OC)C(C)C)n5)cc4)cnc3c2)[nH]1)c1ccccc1 [Example 56, Methyl {(2S)-1-[(2S)-2-{4-[4-(6-(2-[(2S)-1-{(2S)-2-[(methoxycarbonyl)amino]-2-phenylacetyl}pyrrolidin-2-yl]-1H-imidazol-5-yl}quinoxalin-2-yl)phenyl]-1H-imidazol-2-yl}pyrrolidin-1-yl]-3-methyl-1-oxobutan-2-yl}carbamate trifluoroacetic acid salt] | – | – | > 2000 | – | 26.3 | 10.2 |
| CC[C@H](C)[C@H](NC(=O)OC)C(=O)N1CCC[C@H]1c1ncc(-c2ccc3nc(-c4ccc(-c5c[nH]c([C@@H]6CCCN6C(=O)[C@@H](NC(=O)OC)C(C)C)n5)cc4)cnc3c2)[nH]1 [Example 58, Methyl {(2S)-1-[(2S)-2-{4-[4-(6-{2-[(2S)-1-{(2S,3S)-2-[(methoxycarbonyl)amino]-3-methylpentanoyl}pyrrolidin-2-yl]-1H-imidazol-5-yl}quinoxalin-2-yl)phenyl]-1H-imidazol-2-yl}pyrrolidin-1-yl]-3-methyl-1-oxobutan-2-yl}carbamate trifluoroacetic acid salt] | – | – | > 2000 | – | 6.71 | 5.07 |
